Assay: Krafft Temperature from electrical conductivity in water at various temperatures
Assay type: physicochemical
Conditions: electrical conductivity vs. temperature, sulfate
Description: In some embodiments, the surfactants useful for the present disclosure can have a high Krafft temperature. For example, exemplary surfactants can have a Krafft temperature of at least 50° C. […] Krafft temperature can be determined by, for example, measuring electrical conductivity in water at various temperatures, where the Krafft temperature is taken to be the inflection point when conductivity is plotted against temperature.
Krafft Temperature, the temperature at which an ionic surfactant begins to form micelles in water, is marked by a significant increase in solubility and therefore electrical conductivity for ionic surfactants. Electrical conductivities of the HMW Surfactant species were measured in water at various temperatures to determine Krafft Temperature.

- Krafft Temperature (listed as SDS): 15 °C
- Krafft Temperature: roughly 15 °C
SMILES: CCCCCCCCCCCCOS(=O)(=O)[O-].[Na+] [sodium dodecyl sulfate]
